Experimental data reported in PubChem BioAssay (NCI).
Where “and” joins values, the source holds several entries; their conditions need not be identical. Identical values can stand only once.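 Compound exposure: 48 hours, 5 concentrations, 96-well plates. At the GI50, growth is halved. Definition used: TGI = concentration required for complete inhibition of growth.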

Assays:
Assay in all cases: NCI tumour cell line growth inhibition, 48 h
MDA-MB-468 breast = system: MDA-MB-468 breast
786-0 renal = system: 786-0 renal
A498 renal = system: A498 renal
A549 NSCLC = system: A549 NSCLC
ACHN renal = system: ACHN renal
CAKI-1 renal = system: CAKI-1 renal
CCRF-CEM leukemia = system: CCRF-CEM leukemia
COLO 205 colon = system: COLO 205 colon
DU-145 prostate = system: DU-145 prostate
EKVX NSCLC = system: EKVX NSCLC
HCC-2998 colon = system: HCC-2998 colon
HCT-15 colon = system: HCT-15 colon
HL-60(TB) leukemia = system: HL-60(TB) leukemia
HOP-62 NSCLC = system: HOP-62 NSCLC
HOP-92 NSCLC = system: HOP-92 NSCLC
HT29 colon = system: HT29 colon
IGROV1 ovarian = system: IGROV1 ovarian
K-562 leukemia = system: K-562 leukemia
LOX IMVI melanoma = system: LOX IMVI melanoma
M14 melanoma = system: M14 melanoma
MALME-3M melanoma = system: MALME-3M melanoma
MCF7 breast = system: MCF7 breast
MDA-MB-231 breast = system: MDA-MB-231 breast
MDA-MB-435 = system: MDA-MB-435
MOLT-4 leukemia = system: MOLT-4 leukemia
NCI-H226 lung = system: NCI-H226 lung
NCI-H23 lung = system: NCI-H23 lung
NCI-H460 lung = system: NCI-H460 lung
NCI-H522 lung = system: NCI-H522 lung
OVCAR-3 ovarian = system: OVCAR-3 ovarian
OVCAR-4 ovarian = system: OVCAR-4 ovarian
OVCAR-5 ovarian = system: OVCAR-5 ovarian
OVCAR-8 ovarian = system: OVCAR-8 ovarian
PC-3 prostate = system: PC-3 prostate
RPMI-8226 leukemia = system: RPMI-8226 leukemia
RXF 393 renal = system: RXF 393 renal
SF-268 CNS = system: SF-268 CNS
SF-295 CNS = system: SF-295 CNS
SF-539 CNS = system: SF-539 CNS
SK-MEL-2 melanoma = system: SK-MEL-2 melanoma
SK-MEL-28 melanoma = system: SK-MEL-28 melanoma
SK-MEL-5 melanoma = system: SK-MEL-5 melanoma
SK-OV-3 ovarian = system: SK-OV-3 ovarian
SN12C renal = system: SN12C renal
SNB-19 CNS = system: SNB-19 CNS
SNB-75 CNS = system: SNB-75 CNS
SR leukemia = system: SR leukemia
SW-620 colon = system: SW-620 colon
T-47D breast = system: T-47D breast
TK-10 renal = system: TK-10 renal
U251 CNS = system: U251 CNS
UACC-257 melanoma = system: UACC-257 melanoma
UACC-62 melanoma = system: UACC-62 melanoma
UO-31 renal = system: UO-31 renal

For `CCN1CCN(Cc2ccc(-c3cc4c(N[C@H](C)c5ccccc5)ncnc4[nH]3)cc2)CC1`, the GI50 (MDA-MB-468 breast) was 20.2 nM and 41.9 nM and the TGI (MDA-MB-468 breast) was 0.286 µM and 0.481 µM.

In the case of `Nc1c(C(=O)c2cccc(CCCN3CCOCC3)c2)cnn1-c1ccc(F)cc1`, the GI50 (MDA-MB-468 breast) is reported as > 20100 nM and the TGI (MDA-MB-468 breast) is reported as > 25 µM.

With `COc1cc2c(cc1O)CC[C@@H]1[C@@H]2CC[C@]2(C)[C@@H](NCCN(C)C)CC[C@@H]12` the GI50 (MDA-MB-468 breast) was 126 nM and the TGI (MDA-MB-468 breast) was 0.499 µM.

`OC(c1cccc(-n2ccc(C(F)(F)F)n2)c1)c1cnccc1NC1CCCCCC1` (configuration not stated) showed a GI50 (MDA-MB-468 breast) of 1640 nM and a TGI (MDA-MB-468 breast) of 3.28 µM.

With `C[C@@H]1COCCN1c1cc(C2([S@](C)(=N)=O)CC2)nc(-c2ccnc3[nH]ccc23)n1` the GI50 (MDA-MB-468 breast) was 3120 nM and 4140 nM and the TGI (MDA-MB-468 breast) was 27.2 µM and > 10 µM.

Work on `CCN(CC)CCOCC[C@H]1CC[C@H]2[C@@H]3[C@H](C)Cc4cc(OS(N)(=O)=O)ccc4[C@H]3CC[C@]12C` yielded a GI50 (MDA-MB-468 breast) of 259 nM and a TGI (MDA-MB-468 breast) of 1.36 µM.

Work on `Clc1ccc(CSC(Cn2ccnc2)c2ccc(Cl)cc2Cl)cc1` (configuration not stated) yielded a GI50 (MDA-MB-468 breast) of 1390 nM and a TGI (MDA-MB-468 breast) of 3.37 µM.

`Cc1ccc([N+](=O)[O-])cc1NC(=O)Nc1cccc(F)c1` showed a GI50 (MDA-MB-468 breast) of 3600 nM and a TGI (MDA-MB-468 breast) of 24.7 µM.

For `O=C(NC1CCN(Cc2ccccc2)CC1)c1cc(-c2ccncc2)nc2ccc(Cl)cc12`, the GI50 (MDA-MB-468 breast) was 6820 nM and the TGI (MDA-MB-468 breast) was 37 µM.

In the case of `Cn1cc(-c2ccc3c(Nc4cccc(NC(=O)Nc5cccc(F)c5)c4)ncnc3c2)cn1`, the GI50 (MDA-MB-468 breast) is reported as 107 nM and the TGI (MDA-MB-468 breast) is reported as 1.64 µM.

`COc1ccc(CC(C)=C(c2ccc(OCCN3CCCC3)cc2)c2ccc(OCCN3CCCC3)cc2)cc1` gave a GI50 (MDA-MB-468 breast) of 777 nM and a TGI (MDA-MB-468 breast) of 3.1 µM.

`CC(C)[C@]12O[C@H]1[C@@H]1O[C@]13[C@]1(O[C@H]1C[C@H]1C4=C(CC[C@@]13C)C(=O)OC4)[C@@H]2O` showed a GI50 (MDA-MB-468 breast) of 17.6 nM and a TGI (MDA-MB-468 breast) of 0.0385 µM.

For `COc1cc(C(=O)/C=C/c2c(C)n([O-])c3ccc(C)cc3[n+]2=O)cc(OC)c1OC`, the GI50 (MDA-MB-468 breast) was 2590 nM and the TGI (MDA-MB-468 breast) was 9.94 µM.

In the case of `COc1ccc2[nH]c(=O)c3c4ccccc4cn3c2c1`, the GI50 (MDA-MB-468 breast) is reported as 179 nM and the TGI (MDA-MB-468 breast) is reported as 1.36 µM.

With `CCSCC1CC(O)(c2ccccc2)C(c2ccccc2)C(c2ccc(Cl)cc2)O1` (configuration not stated) the GI50 (MDA-MB-468 breast) was 1700 nM and the TGI (MDA-MB-468 breast) was 3.55 µM.

For `CCS(=O)(=O)N1CCC(C(C)n2c(C)c(C(=O)NCc3c(OC)cc(C)[nH]c3=O)c3ccccc32)CC1` (configuration not stated), the GI50 (MDA-MB-468 breast) was 92000 nM and the TGI (MDA-MB-468 breast) was > 100 µM.

For `CCNC(=O)[C@@H]1CCCN2C(=O)CC[C@H](NC(=O)[C@H](Cc3ccc(OP(=O)(O)O)cc3)NC(C)=O)C(=O)N12`, the GI50 (MDA-MB-468 breast) was > 25000 nM and the TGI (MDA-MB-468 breast) was > 25 µM.

Molecule `C=C1CC[C@@H]2[C@]3(C)COC(c4cn(-c5ccccc5)nc4-c4cccc([N+](=O)[O-])c4)O[C@@H]3CC[C@@]2(C)[C@@H]1C/C=C1/C(=O)OC[C@H]1O` (some centres not stated) has a GI50 (786-0 renal) of 3.04 µM, a TGI (786-0 renal) of 10.3 µM and a GI50 (A498 renal) of 18.9 µM. For the same molecule, the TGI (A498 renal) was 45.4 µM, the GI50 (A549 NSCLC) was 3.62 µM and the TGI (A549 NSCLC) was > 100 µM. It also gave a GI50 (ACHN renal) of 1890 nM, a TGI (ACHN renal) of 3.62 µM and a GI50 (CAKI-1 renal) of 2810 nM. The TGI (CAKI-1 renal) was > 100 µM, the GI50 (CCRF-CEM leukemia) was 1140 nM and the TGI (CCRF-CEM leukemia) was 5.01 µM. The GI50 (COLO 205 colon) was 2410 nM, the TGI (COLO 205 colon) was 5.06 µM and the GI50 (DU-145 prostate) was 4.11 µM. The TGI (DU-145 prostate) was 24.3 µM, the GI50 (EKVX NSCLC) was 2750 nM and the TGI (EKVX NSCLC) was 7.98 µM. For the same molecule, the GI50 (HCC-2998 colon) was 1920 nM, the TGI (HCC-2998 colon) was 3.53 µM and the GI50 (HCT-15 colon) was 1740 nM. The TGI (HCT-15 colon) was 3.58 µM, the GI50 (HL-60(TB) leukemia) was 1730 nM and the TGI (HL-60(TB) leukemia) was > 100 µM. The GI50 (HOP-62 NSCLC) was 3.15 µM, the TGI (HOP-62 NSCLC) was 12.4 µM and the GI50 (HOP-92 NSCLC) was 1860 nM. It also gave a TGI (HOP-92 NSCLC) of 3.64 µM, a GI50 (HT29 colon) of 1820 nM and a TGI (HT29 colon) of 4.26 µM. The GI50 (IGROV1 ovarian) was 2080 nM, the TGI (IGROV1 ovarian) was 4.27 µM and the GI50 (K-562 leukemia) was 2160 nM. For the same molecule, the TGI (K-562 leukemia) was > 100 µM, the GI50 (LOX IMVI melanoma) was 1720 nM and the TGI (LOX IMVI melanoma) was 3.34 µM. The GI50 (M14 melanoma) was 2080 nM, the TGI (M14 melanoma) was 4.52 µM and the GI50 (MALME-3M melanoma) was 1780 nM. For the same molecule, the TGI (MALME-3M melanoma) was 3.55 µM, the GI50 (MCF7 breast) was 2640 nM and the TGI (MCF7 breast) was > 100 µM. It also gave a GI50 (MDA-MB-231 breast) of 1840 nM, a TGI (MDA-MB-231 breast) of 3.44 µM and a GI50 (MDA-MB-435) of 3.03 µM. It also gave a TGI (MDA-MB-435) of 18.3 µM, a GI50 (MDA-MB-468 breast) of 1760 nM and a TGI (MDA-MB-468 breast) of 3.52 µM. For the same molecule, the GI50 (MOLT-4 leukemia) was 2870 nM, the TGI (MOLT-4 leukemia) was > 100 µM and the GI50 (NCI-H226 lung) was 2380 nM. For the same molecule, the TGI (NCI-H226 lung) was 6.59 µM, the GI50 (NCI-H23 lung) was 1830 nM and the TGI (NCI-H23 lung) was 3.55 µM. It also gave a GI50 (NCI-H460 lung) of 2270 nM, a TGI (NCI-H460 lung) of 4.8 µM and a GI50 (NCI-H522 lung) of 1750 nM. It also gave a TGI (NCI-H522 lung) of 3.41 µM, a GI50 (OVCAR-3 ovarian) of 1870 nM and a TGI (OVCAR-3 ovarian) of 3.75 µM. The GI50 (OVCAR-4 ovarian) was 4.05 µM, the TGI (OVCAR-4 ovarian) was > 100 µM and the GI50 (OVCAR-5 ovarian) was 2060 nM. It also gave a TGI (OVCAR-5 ovarian) of 5.05 µM, a GI50 (OVCAR-8 ovarian) of 1900 nM and a TGI (OVCAR-8 ovarian) of 5.04 µM. It also gave a GI50 (PC-3 prostate) of 2750 nM, a TGI (PC-3 prostate) of 9.04 µM and a GI50 (RPMI-8226 leukemia) of 2450 nM. The TGI (RPMI-8226 leukemia) was > 100 µM, the GI50 (RXF 393 renal) was 1620 nM and the TGI (RXF 393 renal) was 3.2 µM. For the same molecule, the GI50 (SF-268 CNS) was 7.65 µM, the TGI (SF-268 CNS) was > 100 µM and the GI50 (SF-295 CNS) was 1680 nM. For the same molecule, the TGI (SF-295 CNS) was 3.19 µM, the GI50 (SF-539 CNS) was 1740 nM and the TGI (SF-539 CNS) was 3.18 µM. It also gave a GI50 (SK-MEL-2 melanoma) of 1780 nM, a TGI (SK-MEL-2 melanoma) of 3.51 µM and a GI50 (SK-MEL-28 melanoma) of 2040 nM. The TGI (SK-MEL-28 melanoma) was 4.06 µM, the GI50 (SK-MEL-5 melanoma) was 1630 nM and the TGI (SK-MEL-5 melanoma) was 3 µM. For the same molecule, the GI50 (SK-OV-3 ovarian) was 29.8 µM, the TGI (SK-OV-3 ovarian) was > 100 µM and the GI50 (SN12C renal) was 2930 nM. For the same molecule, the TGI (SN12C renal) was 10.3 µM, the GI50 (SNB-19 CNS) was 3.65 µM and the TGI (SNB-19 CNS) was 15 µM. For the same molecule, the GI50 (SNB-75 CNS) was 7.34 µM, the TGI (SNB-75 CNS) was 50.1 µM and the GI50 (SR leukemia) was 3.46 µM. For the same molecule, the TGI (SR leukemia) was > 100 µM, the GI50 (SW-620 colon) was 2210 nM and the TGI (SW-620 colon) was 5.13 µM. It also gave a GI50 (T-47D breast) of 1760 nM, a TGI (T-47D breast) of 5.02 µM and a GI50 (TK-10 renal) of 2220 nM. It also gave a TGI (TK-10 renal) of 5.82 µM, a GI50 (U251 CNS) of 1740 nM and a TGI (U251 CNS) of 3.35 µM. For the same molecule, the GI50 (UACC-257 melanoma) was 1800 nM, the TGI (UACC-257 melanoma) was 3.68 µM and the GI50 (UACC-62 melanoma) was 1690 nM. The TGI (UACC-62 melanoma) was 3.46 µM, the GI50 (UO-31 renal) was 1820 nM and the TGI (UO-31 renal) was 5.46 µM.
